Source: ChEMBL document CHEMBL1201862, “PubChem BioAssay data set” (2004)
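Grown in 96-well plates, cells were treated for 48 hours with each compound at five concentrations. Insufficient inhibition: endpoint recorded as highest concentration tested. GI50 is the concentration that inhibits growth by half.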 Active and inactive are the calls of the source. Rule as the data show it: active = GI50 up to about 1.1 µM and inactive = higher.

How the values were obtained:
Assay in all cases: NCI-60 cell line screen, 48 h
[1] = system: HT-29
[2] = system: PC-3
[3] = system: OVCAR-8
[4] = system: SK-OV-3
[5] = system: MDA-MB-231
[6] = system: A498
[7] = system: 786-0
[8] = system: MDA-MB-435
[9] = system: NCI-H226
[10] = system: SK-MEL-2
[11] = system: HOP-62
[12] = system: EKVX
[13] = system: SR
[14] = system: HCT-116
[15] = system: RXF 393
[16] = system: MDA-N
[17] = system: OVCAR-4
[18] = system: HOP-92
[19] = system: A549

SMILES	GI50 [1]	GI50 [2]	GI50 [3]	GI50 [4]	GI50 [5]	GI50 [6]	GI50 [7]	GI50 [8]	GI50 [9]	GI50 [10]	GI50 [11]	GI50 [12]	GI50 [13]	GI50 [14]	GI50 [15]	GI50 [16]	GI50 [17]	GI50 [18]	GI50 [19]
O=c1[nH]c2ccc(CC(=S)N3CCOCC3)cc2o1	> 100 µM (inactive)	> 100 µM (inactive)	> 100 µM (inactive)	> 100 µM (inactive)	> 100 µM (inactive)	> 100 µM (inactive)	> 100 µM (inactive)	> 100 µM (inactive)	> 100 µM (inactive)	> 100 µM (inactive)	> 100 µM (inactive)	> 100 µM (inactive)	56.6 µM (inactive)	> 100 µM (inactive)	> 100 µM (inactive)				
Nc1ccc2c(c1)N(C(=O)c1cc3cc(NC(=O)c4cc5ccccc5o4)ccc3[nH]1)CC2CCl (stereo unspecified)	0.129 µM (active)	0.0671 µM (active)	0.0397 µM (active)	0.128 µM (active)	0.239 µM (active)	0.16 µM (active)	0.0638 µM (active)	0.162 µM (active)	0.13 µM (active)	0.0755 µM (active)	0.138 µM (active)	0.262 µM (active)		0.0533 µM (active)	0.018 µM (active)	0.183 µM (active)	0.0605 µM (active)	0.168 µM (active)	0.0299 µM (active)
COC(=O)C1CCC(=O)N1CN(C(C)=O)c1cccc(O)c1 (stereo unspecified)	> 100 µM (inactive)	> 100 µM (inactive)	> 100 µM (inactive)	> 100 µM (inactive)	> 100 µM (inactive)	> 100 µM (inactive)	> 100 µM (inactive)	> 100 µM (inactive)	> 100 µM (inactive)	> 100 µM (inactive)	> 100 µM (inactive)	> 100 µM (inactive)		> 100 µM (inactive)	> 100 µM (inactive)	> 100 µM (inactive)	> 100 µM (inactive)	> 100 µM (inactive)	> 100 µM (inactive)
O=S(=O)(c1ccc(/N=C2\NC(c3ccc(O)cc3)(c3ccccc3O)c3ccccc32)cc1)c1ccc(/N=C2/NC(c3ccc(O)cc3)(c3ccccc3O)c3ccccc32)cc1 (stereo unspecified)	3.09 µM (inactive)	5.05 µM (inactive)	3.33 µM (inactive)	9.82 µM (inactive)		11.9 µM (inactive)	3.02 µM (inactive)		2.5 µM (inactive)	3.73 µM (inactive)	5.28 µM (inactive)	5.96 µM (inactive)	5.38 µM (inactive)	2.23 µM (inactive)	4.02 µM (inactive)	2.99 µM (inactive)	2.87 µM (inactive)	3.91 µM (inactive)	6.15 µM (inactive)
O=C1N=C2SC(=S)N=C(S)N2NC12c1ccccc1-c1ccccc12	7.01 µM (inactive)		> 10 µM (inactive)	> 10 µM (inactive)	> 10 µM (inactive)	1.55 µM (inactive)	> 10 µM (inactive)				> 10 µM (inactive)	3.67 µM (inactive)	> 10 µM (inactive)			> 10 µM (inactive)	5.13 µM (inactive)	> 10 µM (inactive)	> 10 µM (inactive)
CC(=O)N1CC(C)(C)c2c1cc(C)c(O)c2C	> 100 µM (inactive)	> 100 µM (inactive)	> 100 µM (inactive)	> 100 µM (inactive)	> 100 µM (inactive)	> 100 µM (inactive)	> 100 µM (inactive)	> 100 µM (inactive)	> 100 µM (inactive)	> 100 µM (inactive)	> 100 µM (inactive)	> 100 µM (inactive)		> 100 µM (inactive)	> 100 µM (inactive)	> 100 µM (inactive)	> 100 µM (inactive)		> 100 µM (inactive)
O=C(Cc1ccccc1)NNc1nc(NNC(=O)c2ccncc2)nc(Nc2ccc(Cl)cc2)n1			> 10 µM (inactive)	> 10 µM (inactive)	> 10 µM (inactive)		> 10 µM (inactive)				> 10 µM (inactive)	> 10 µM (inactive)	> 10 µM (inactive)			> 10 µM (inactive)	> 10 µM (inactive)	> 10 µM (inactive)	> 10 µM (inactive)
CSC1(CC(=O)N2CCCCC2)C(=O)Nc2ccccc21 (stereo unspecified)	> 100 µM (inactive)	> 100 µM (inactive)		> 100 µM (inactive)		> 100 µM (inactive)	> 100 µM (inactive)	> 100 µM (inactive)	> 100 µM (inactive)	> 100 µM (inactive)	> 100 µM (inactive)	> 100 µM (inactive)		> 100 µM (inactive)			> 100 µM (inactive)		> 100 µM (inactive)
COc1ccc(/C=C/C(=O)c2sc(NC(=S)NC(=O)c3ccc(Cl)cc3)nc2C)cc1OC	88.1 µM (inactive)		43.9 µM (inactive)	> 100 µM (inactive)			83.8 µM (inactive)		37.2 µM (inactive)	47.1 µM (inactive)	47.5 µM (inactive)	66.8 µM (inactive)	32 µM (inactive)	51.4 µM (inactive)	95.5 µM (inactive)		52.5 µM (inactive)		43 µM (inactive)
Oc1nc(S)nc2c1C(c1ccc(Cl)cc1)c1c(O)nc(S)nc1O2	> 100 µM (inactive)	> 100 µM (inactive)	> 100 µM (inactive)		> 100 µM (inactive)	> 100 µM (inactive)	> 100 µM (inactive)	> 100 µM (inactive)	> 100 µM (inactive)	> 100 µM (inactive)	> 100 µM (inactive)	> 100 µM (inactive)		> 100 µM (inactive)	0.514 µM (active)	> 100 µM (inactive)	> 100 µM (inactive)	> 100 µM (inactive)	> 100 µM (inactive)
CC(=O)N1c2ccccc2C2=CC3C4C(=O)N(c5ccccc5)C(=O)C4C21C1C(=O)N(c2ccccc2)C(=O)C31 (stereo unspecified)	36.9 µM (inactive)		23.1 µM (inactive)	23.1 µM (inactive)		74.5 µM (inactive)	37.2 µM (inactive)			17.3 µM (inactive)			32.5 µM (inactive)	3.83 µM (inactive)				> 100 µM (inactive)	32.4 µM (inactive)
CCOC(=O)N1CCC2(CC1)C[C@](C)(C(C)=O)C(C)O2 (stereo partly specified)	> 100 µM (inactive)	> 100 µM (inactive)	> 100 µM (inactive)	> 100 µM (inactive)	> 100 µM (inactive)	> 100 µM (inactive)	> 100 µM (inactive)	> 100 µM (inactive)	> 100 µM (inactive)	> 100 µM (inactive)	> 100 µM (inactive)	> 100 µM (inactive)	> 100 µM (inactive)				> 100 µM (inactive)	> 100 µM (inactive)	> 100 µM (inactive)
O=C1O[C@@H](c2ccccc2)C[C@@H]1CN1CCOCC1	> 100 µM (inactive)		> 100 µM (inactive)	> 100 µM (inactive)		> 100 µM (inactive)	> 100 µM (inactive)		> 100 µM (inactive)	> 100 µM (inactive)	> 100 µM (inactive)	> 100 µM (inactive)			> 100 µM (inactive)		> 100 µM (inactive)	> 100 µM (inactive)	> 100 µM (inactive)
O=C1c2ccncc2C(=O)c2c(O)ccc(O)c21	3.07 µM (inactive)		9.64 µM (inactive)			19 µM (inactive)	6.38 µM (inactive)		15.7 µM (inactive)	8.05 µM (inactive)	32.2 µM (inactive)	18 µM (inactive)	11 µM (inactive)	2.91 µM (inactive)	4.35 µM (inactive)		11.1 µM (inactive)	17.7 µM (inactive)	5.48 µM (inactive)
Cn1c(S)nnc1CNc1ccc(-c2nnc(S)n2C)cc1	> 100 µM (inactive)	> 100 µM (inactive)	> 100 µM (inactive)	> 100 µM (inactive)	> 100 µM (inactive)		> 100 µM (inactive)	> 100 µM (inactive)	> 100 µM (inactive)	> 100 µM (inactive)	> 100 µM (inactive)	> 100 µM (inactive)		> 100 µM (inactive)		> 100 µM (inactive)	> 100 µM (inactive)	> 100 µM (inactive)	> 100 µM (inactive)
CC(C)(O)/C=C\P(=O)(O)O	> 100 µM (inactive)	> 100 µM (inactive)	> 100 µM (inactive)	> 100 µM (inactive)			> 100 µM (inactive)	> 100 µM (inactive)	> 100 µM (inactive)	> 100 µM (inactive)	> 100 µM (inactive)	> 100 µM (inactive)	> 100 µM (inactive)	> 100 µM (inactive)	> 100 µM (inactive)	> 100 µM (inactive)	> 100 µM (inactive)	> 100 µM (inactive)	> 100 µM (inactive)
COc1cc(C(c2ccc3c(c2)OCO3)N2C(=O)CCC2C(=O)O)cc(OC)c1OC (stereo unspecified)	> 100 µM (inactive)	> 100 µM (inactive)	> 100 µM (inactive)	> 100 µM (inactive)	> 100 µM (inactive)	> 100 µM (inactive)	> 100 µM (inactive)	> 100 µM (inactive)	> 100 µM (inactive)	> 100 µM (inactive)	> 100 µM (inactive)	> 100 µM (inactive)		> 100 µM (inactive)		> 100 µM (inactive)	> 100 µM (inactive)	> 100 µM (inactive)	> 100 µM (inactive)
CSc1nc(Nc2cccc(C(F)(F)F)c2)c2c(N)nn(C)c2n1	51.9 µM (inactive)	> 100 µM (inactive)	> 100 µM (inactive)	> 100 µM (inactive)	> 100 µM (inactive)	48 µM (inactive)	> 100 µM (inactive)	> 100 µM (inactive)	> 100 µM (inactive)	> 100 µM (inactive)	> 100 µM (inactive)			> 100 µM (inactive)	20.5 µM (inactive)	> 100 µM (inactive)	> 100 µM (inactive)		43.6 µM (inactive)
